Tests used:
[1] = molecular target: T1, PDF(Fe) (peptide deformylase) (Escherichia coli, UniProt P0A6K3); experiment: Enantioselective enzymatic deformylation of N-formyl compounds by PDF(Fe), HPLC analysis; format: biochemical, E. coli
T1 construct: made in house; host or cells: overproducing E. coli cells
Procedure: PDF(Fe) was isolated from overproducing E. coli cells grown at 30° C. in 1.6 l TB medium for 14–16 h. About 13 g (wet weight) cell paste were suspended in 26 ml buffer (20 mM Hepes/KOH, 100 mM KF, pH 7.7 supplemented with 10 μg/ml catalase from bovine liver (Boehringer Mannheim) and 1 mM AEBSF, disintegrated by sonication (Branson B12, 20 min) at 0° C. and centrifuged at 200.000 g for 1 h. The clear supernatant (1.3 g of protein; according to biurete reaction) was mixed with 1.3 ml 10% (w/v) Polymin G-35 (BASF) adjusted to pH 7.7 and centrifuged at 40.000 g for 10 min. The supernatant was applied to a 20 ml Met-Lys-Sepharose column that had been equilibrated with 20 mM Hepes/KOH, 100 mM KF, 0.2 mM TCEP, pH 7.7. After washing with 120 ml of 20 mM Hepes/KOH, 100 mM KF, 0.2 mM TCEP, pH 7.7, PDF(Fe) was eluted with 150 ml 20 mM Hepes/KOH, 100 mM KCl, 0.2 mM TCEP, pH 7.7. The protein containing fractions were concentrated by ultrafiltration using an Amicon PM10 membrane (yield: 140 mg protein, 1400 U/mg; determined according to Groche et al.). After adjustment of the TCEP concentration to 1 mM and protein concentration to 40 mg/ml, the PDF(Fe) stock solution (40 mg/ml=2 mM) was stored frozen at −60° C. After thawing, the PDF(Fe) stock solution could be used directly in the deformylation experiments described below. If however solutions with lower PDF(Fe) concentrations were required for these deformylation experiments, the PDF stock solution was diluted further in 20 mM Hepes/KOH, pH 7.7, 100 mM KCl, 1 mg/ml bovine serum albumin, 10 μg/ml catalase solution.
In all cases HPLC conditions had to be developed in which the two deformylated isomers were separated from each other and from the formylated isomers. To this end two different techniques were applied that is method 1 and method 2, as described below.
From the quantities of deformylated isomers in the samples after various reaction times, both the initial deformylation rate constant (kf and ks in M^−1s^−1) could be calculated for both enantiomers, as well as the respective ee values. The enantioselectivity of the enzyme (E value) was calculated by taking the ratio of kf/ks and is given for all Examples in table 1, as well as the maximum ee value (eemax) observed during the experiments.
A Crownpak CR(+) column (4×150 mm) was used. Samples (5 μl) withdrawn from the deformylation mixture were mixed with 95 μl aqueous HClO4 (10 mM) to inactivate PDF(Fe). Following a brief centrifugation, 20 μl of the supernatant were applied to the Crownpak CR(+) column. For specific chromatographic conditions and retention times see table 2.
Method 2 (Precolumn derivatization with o-phthaldialdehyde (OPA) and N-acetyl-L-cysteine (NAC). Samples (25 μl) withdrawn from the deformylation mixture were mixed with 25 μl aqueous HClO4 (100 mM) to inactivate PDF(Fe). Following a brief centrifugation, 40 μl of the supernatant were added to 80 μl 1 M aqueous H3BO3/NaOH pH 9.4, subsequently 20 μl OPA reagent (consisting of OPA in H2O/CH3OH 1:1 v/v with a concentration as indicated in table 3) and 20 μl NAC reagent (consisting of NAC in H2O/CH3OH 1:1 v/v with a concentration as indicated in table 3) was added. After the time indicated in table 3 derivatization was terminated by addition of 80 μl (250 mM) aqueous H3PO4, and 20 μl of the solution were instantaneously applied to a Nucleosil 120-5 C18 (250×4 mm) column. Temperature was always ambient and detection was spectrophotometric using a wavelength of 257 nm and/or 340 nm. The used eluent was a mixture of aqueous 0.05 M H3PO4 brought at pH 7.0 with 1 M NaOH, and a percentage of acetonitrile as indicated in table 3. For derivatization of valine aminonitrile borate buffer was adjusted to pH 11 and addition of NAC reagent was done 10 min after OPA reagent had been added. Concentration of H3PO4 used for termination was 500 mM. Derivatization and separation conditions as well as the observed retention times for the deformylated compounds analyzed are compiled in table 3. […]

[2] = tested on: L-aminoacylases; settings: U.S. Pat. No. 4,745,067; cited from earlier work
[3] = tested on: known peptide deformylases; settings: Rajagopalan et al., Biochemistry 1997; cited from earlier work
[4] = Method A: 100 mM MOPS/NaOH, 2 M Li2SO4, pH 7.2, 37° C.
[5] = Method B: absence of Li2SO4, 100 mM MOPS/NaOH, 250 mM NaCl, 0.1 mg/ml catalase, pH 7.2, 37° C.
[6] = Method C: absence of Li2SO4, 100 mM MES/NaOH, pH 6.2, 37° C.

T1 sequence (P0A6K3 whole entry): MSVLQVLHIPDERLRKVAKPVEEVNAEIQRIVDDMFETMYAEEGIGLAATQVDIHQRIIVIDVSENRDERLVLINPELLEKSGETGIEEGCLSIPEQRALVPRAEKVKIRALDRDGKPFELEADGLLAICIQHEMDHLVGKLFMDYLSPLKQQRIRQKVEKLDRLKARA

Molecule	kf (rate of deformylation of the most rapidly deformylated enantiomer) [1, 4]	ks (rate of deformylation of the least rapidly deformylated enantiomer) [1, 4] [M⁻¹ s⁻¹]	E (enantioselectivity, kf/ks) [1, 5]	eemax (maximum ee value observed) [1, 5]	kf (rate of deformylation of the most rapidly deformylated enantiomer) [1, 5]	ks (rate of deformylation of the least rapidly deformylated enantiomer) [1, 5] [M⁻¹ s⁻¹]	E (enantioselectivity, kf/ks) [1, 4]	eemax (maximum ee value observed) [1, 4]	other results
O=CN1CCC[C@H]1C(=O)O [Comparative Experiment B, N-formyl-proline, reference compound]	<0,004 M^−1s^−1	<0.004							
O=CNC(C(=O)O)c1ccccc1 (stereo not drawn) [Example 1, N-formyl-phenylglycine]			2255	99,6%	10,6 M^−1s^−1	0.0047			
O=CNC(CC(=O)O)c1ccccc1 (stereo not drawn) [Example 2, N-formyl-3-amino-3-phenyl-propionic acid]			>1775	100%	7,1 M^−1s^−1	<0.004			
O=CNC(CO)c1ccccc1 (stereo not drawn) [Example 6, N-formyl-phenylglycinol]	6,3 M^−1s^−1	0.34	23,8	90,5%	0,69 M^−1s^−1	0.029	18,5	93,3%	
C[C@@H](CO)NC=O [Example 8, N-formyl-alaninol]	0,22 M^−1s^−1	0.018					12	85,6%	
N#CC(Cc1ccccc1)NC=O (stereo not drawn) [Example 9, N-formyl-phenylalanine aminonitrile]									E (enantioselectivity, kf/ks) [1, 6]: 880; eemax (maximum ee value observed) [1, 6]: 98,8%; kf (rate of deformylation of the most rapidly deformylated enantiomer) [1, 6]: 880 M⁻¹ s⁻¹; ks (rate of deformylation of the least rapidly deformylated enantiomer) [1, 6]: 1 M⁻¹ s⁻¹
CC(C)C(C#N)NC=O (stereo not drawn) [Example 10, N-formyl-valine aminonitrile]	29,7 M^−1s^−1	0.62					47,9	95,5%	
COc1cccc(CC(C#N)NC=O)c1 (stereo not drawn) [Example 11, N-formyl-m-methoxy-phenylalanine aminonitrile]			685	99,0%	1370 M⁻¹ s⁻¹	2			
CC(NC=O)c1cccc2ccccc12 (stereo not drawn) [Example 12, N-formyl-1-(1-naphthyl)-ethylamine]	0,45 M^−1s^−1	0.03					15	90%	
CSCC[C@H](NC=O)C(=O)O [N-formyl-L-methionine]									activity of L-aminoacylases towards the substrate [2]: low
CSCC[C@H](NC=O)C(=O)O [N-formylmethionine]									deformylase activity of known peptide deformylases towards the substrate [3]: no or little activity
N-acetyl-phenylglycine amide [Comparative Experiment A, reference compound]	<0,001 M^−1s^−1	<0.001							

Source: patent publication US7018817B1, “Process for the preparation of compounds with enhanced optical purity” (DSM IP Assets B.V., priority 1998, dated 2006)
